# Laboratory results as given in patent publication US6939874B2, “Substituted pyrimidinyl derivatives and methods of use” (Amgen Inc., priority 2001, dated 2005).
# Tested on: 3T3
# Assay: IGF-1-induced DNA synthesis (3H-thymidine incorporation)
# Assay type: cell-based
# Conditions: NIH3T3, activated with 50 ng/mL IGF-1, read-out: inhibited 3T3 proliferation
# Experimental: IGF-1-Induced DNA Synthesis.
# Human tumor cell lines or a rat fibroblast cell line are plated out in flat-well plates in complete medium and allowed to adhere overnight. The cells are then starved in medium containing 0.1% bovine serum albumin (BSA) overnight, pre-incubated for 1 h with or without dilutions of compound, then activated overnight with 50 ng/mL insulin-like growth factor (IGF-1). Proliferation is determined by the level of ^3H-thymidine incorporation into DNA.
row,Structure (SMILES),IC50 [nM]
1,"COc1cc(Nc2nccc(Nc3cnc4ccccc4c3)n2)cc(OC)c1OC [Example 1, N^4-Quinolin-3-yl-N^2-(3,4,5-trimethoxyphenyl)pyrimidine-2,4-diamine]",< 150
2,"COc1cc(Nc2nccc(Nc3ccc4ncccc4c3)n2)cc(OC)c1OC [Example 14, N^4-quinolin-6-yl-N^2-(3,4,5-trimethoxyphenyl)-pyrimidine-2,4-diamine]",< 150
3,"COc1cc(C)c(Nc2nccc(Nc3cnc4ccccc4c3)n2)cc1OC [Example 20, N^2-(3,4-dimethoxy-6-methylphenyl)-N^4-quinolin-3-yl-pyrimidine-2,4-diamine]",< 150
4,"c1ccc2ncc(Nc3ccnc(Nc4ccc(N5CCOCC5)cc4)n3)cc2c1 [Example 48, N^2-(4-(4-morpholinyl)phenyl)-N -(3-quinolinyl)-2,4-pyrimidinediamine]",< 150
5,"c1ccc2ncc(Nc3ccnc(Nc4ccc(N5CCOCC5)nc4)n3)cc2c1 [Example 49, N^2-(6-(4-morpholinyl)-3-pyridinyl)-N^4-(3-quinolinyl)-2,4-pyrimidinediamine]",< 150
6,"CC(=O)c1ccc(Nc2nccc(Nc3cnc4ccccc4c3)n2)cc1 [Example 59, 1-(4-((4-(3-quinalinylamino)-2-pyrimidinyl)amino)phenyl)ethanone]",< 150
7,"CN1CCN(c2ccc(Nc3nccc(Nc4cnc5ccccc5c4)n3)cc2)CC1 [Example 84, N^2-(4-(4-methyl-1-piperazinyl)phenyl)-N^4-(3-qulnolinyl)-2,4-pyrimidinediamine]",< 150
8,"COc1cc(Nc2nccc(Nc3cnc4ccccc4c3)n2)ccc1C(N)=O [Example 94, 2-(Methoxy)-4-((4-(3-quinolinylamino)-2-pyrimidinyl)amino)benzamide]",< 150
9,"c1ccc2ncc(Nc3ccnc(Nc4ccc(OCCCN5CCCCC5)cc4)n3)cc2c1 [Example 98, N^2-[4-(3-Piperidin-1-yl-propoxy)-phenyl]-N^4-4-quinolin-3-yl-pyrimidine-2,4-diamine]",< 150
10,"c1ccc2ncc(Nc3ccnc(Nc4ccc(OCCN5CCCCC5)cc4)n3)cc2c1 [Example 99, N^2-(4-((2-(1-Piperidinyl)ethyl)oxy)phenyl)-N^4-(3-quinolinyl)-2,4-pyrimidinediamine]",< 150
11,COc1ccc(Nc2nccc(Nc3cnc4ccccc4c3)n2)cc1CCN(C)C [Example 100],< 150
12,"c1cc(Nc2nccc(Nc3cnc4ccccc4c3)n2)cc(-c2cnco2)c1 [Example 104, N^2-(3-(1,3-oxazol-5-yl)phenyl)-N^4-(3-quinolinyl)-2,4-pyrimidinediamine]",< 150
13,"c1cc(Nc2nccc(Nc3ccc4ncccc4c3)n2)cc(-c2cnco2)c1 [Example 105, N^2-(3-(1,3-oxazol-5-yl)phenyl)-N^4-(6-quinolinyl)-2,4-pyrimidinediamine]",< 150
14,"CC(=O)N1CC(C)(C)c2ccc(Nc3nccc(Nc4cnc5ccccc5c4)n3)cc21 [Example 110, N^2-(1-acetyl-3,3-dimethyl-2,3-dihydro-1H-indol-6-yl)-N^4-(3-quinolinyl)-2,4-pyrimidinediamine]",< 150
15,"COc1cc(Nc2nccc(Nc3ccc4nc(C)ccc4c3)n2)cc(OC)c1OC [Example 118, N^4-(2-Methyl-6-quinolinyl)-N^2-(3,4,5-tris(methoxy)phenyl)-2,4-pyrimidinediamine]",< 150
16,"COc1cc(Nc2nccc(Nc3cc4ccccc4c(OC)n3)n2)cc(OC)c1OC [Example 130, N^4-(1-Methoxy-isoquinolin-3-yl)-N^2-(3,4,5-trimethoxy-phenyl)-pyrimidine-2,4-diamine]",< 150
17,"COc1cc(Nc2nccc(Nc3cnc4ccccc4c3)n2)ccc1OCCN1CCN(c2nccc(Nc3cnc4ccccc4c3)n2)CC1 [Example 132, N^2-[3-Methoxy-4-(2-{4-[4-(quinolin-3-ylamino)-pyrimidin-2-yl]-piperazin-1-yl}-ethoxy)-phenyl]-N^4-quinolin-3-yl-pyrimidine-2,4-diamine]",< 150
18,"COc1ccc2ncc(Nc3ccnc(Nc4cc(OC)c(OC)c(OC)c4)n3)cc2c1 [Example 134, N^4-(6-Methoxy-quinolin-3-yl)-N^2-(3,4,5-tris(methoxy)phenyl)-2,4-pyrimidinediamine]",< 150
19,"COc1cc(Nc2nccc(Nc3cnc4ccc(O)cc4c3)n2)cc(OC)c1OC [Example 135, N^4-(6-Hydroxy-quinolin-3-yl)-N^2-(3,4,5-tris(methoxy)phenyl)-2,4-pyrimidinediamine]",< 150
20,"COc1ccc2ncc(Nc3ccnc(Nc4cc(OC)c(OC)cc4C)n3)cc2c1 [Example 137, N^4-(6-Methoxy-3-quinolinyl)-N^2-(2-methyl-4,5-dimethoxyphenyl)-2,4-pyrimidinediamine]",< 150
21,"COc1cc(Nc2nccc(Nc3cnc4ccc(OC(F)(F)F)cc4c3)n2)cc(OC)c1OC [Example 139, N^2-(3,4,5-Tris(methoxy)phenyl)-N^4-(6-trifluoromethoxy-3-quinolinyl)-2,4-pyrimidinediamine]",< 150
22,"COc1cc(C)c(Nc2nccc(Nc3cnc4ccc(OC(F)(F)F)cc4c3)n2)cc1OC [Example 140, N^2-(2-Methyl-4,5-dimethoxyphenyl)-N^4-(6-trifluoromethoxy-3-quinolinyl)-2,4-pyrimidinediamine]",< 150
23,"COc1cc(Nc2nccc(Nc3cnc4ccccc4c3)n2)ccc1/C=C/C(=O)N1CCCC1 [Example 148, 3-{2-Methoxy-4-[4-(quinolin-3-ylamino)-pyrimidin-2-ylamino]-phenyl}-1-pyrrolidin-1-yl-propenone]",< 150
24,"COc1cc(Nc2nccc(Nc3cnc4ccccc4c3)n2)ccc1CCC(=O)N1CCCC1 [Example 149, 3-{2-Methoxy-4-[4-(quinolin-3-ylamino)-pyrimidin-2-ylamino]-phenyl}-1-pyrrolidin-1-yl-propanone]",< 150
25,"COc1cc(Nc2nccc(Nc3cnc4ccccc4c3)n2)ccc1CCCN1CCCC1 [Example 150, N^2-[3-Methoxy-4-(3-pyrrolidin-1-yl-propyl)-phenyl]-N-4-quinolin-3-yl-pyrimidine-2,4-diamine]",< 150
26,"COc1cc(Nc2nccc(Nc3cnc4ccccc4c3)n2)ccc1OCCC1CCN(c2nccc(Nc3cnc4ccccc4c3)n2)CC1 [Example 151, N^2-[3-Methoxy-4-(2-{1-[4-(quinolin-3-ylamino)-pyrimidin-2-yl]-piperidin-4-yl}-ethoxy)-phenyl]-N^4-quinolin-3-yl-pyrimidine-2,4-diamine]",< 150
